# Data taken from article PMC11724075, “Small-molecule-induced ERBB4 activation to treat heart failure” (Nature Communications, 2025).
# Where “and” joins values, the source holds several entries; their conditions need not be identical. Equal entries are not always repeated.
# Columns and labels:
# mouse model of MI = experiment: Mouse model of MI (LAD ligation), echocardiography; assay type: in vivo; design: left-ventricular end-diastolic volume / left-ventricular end-systolic volume: unit not given here
# Description: Twelve-week-old female and male Balb/cJ (Charles River, 000651) mice were randomized into either the ctrl or MI group. Mice in the MI group underwent surgical ligation of the LAD, while mice in the ctrl group underwent a sham procedure (n = 8 female mice, n = 10 male mice). Briefly, all mice received an injection of 0.1 mg/kg buprenorphine (Produlab Pharma) before induction of anesthesia with 8% sevoflurane (Zoetis). Anesthesia was maintained with 4.5% sevoflurane and mice were intubated and ventilated. An incision of 15 mm was made on the left side of the thorax and the thoracic cavity was opened at the third intercostal space using blunt forceps. The LAD was permanently ligated with a 8/0 polypropylene monofilament sutures (Ethicon, F1894) after which the thoracic cavity and skin were closed with 6/0 polypropylene monofilament sutures (Ethicon, F1841). and 5/0 polyamide 6 sutures (Ethilon, F2412H), respectively. Mice received another dose of 0.1 mg/kg buprenorphine 6–8 h after the initial dose. Two days after surgery, cardiac ultrasound was performed to exclude mice without successful MI (i.e. displaying hypokinesia in ≥2 out of 5 segments). […] Cardiac ultrasound was performed weekly. After 4 weeks of treatment, mice were euthanized, and hearts were collected.
# Echocardiography was performed using the Vevo F2-LAZRX (FUJIFILM VisualSonics) and UHF57x probe. Mice were anesthetized with 1.5% isoflurane (Alvira, BE-V512222). Parasternal long-axis B-mode images and M-mode images were obtained and analyzed using VevoLAB software (FUJIFILM VisualSonics, Version 5.7.1). For the AngII experiments, measurements were obtained through analysis of the short-axis M-mode. For the MI experiments, measurements were obtained through analysis of the parasternal long-axis B-mode, of which the area and end-volume of the left ventricular cavity in diastole and systole were determined by tracing the endocardial border. Acquisitions, measurements and analyses were performed blinded.
# Supplementary Table 2. Echocardiographic parameters. […]
# Echocardiographic parameters obtained through left ventricular trace analysis of the parasternal long-axis obtained in B-mode in female wild-type mice that underwent a sham or MI operation: mice with […]
# in MI/EF-1 group). (g) Echocardiographic parameters obtained through left ventricular trace analysis of the parasternal long-axis obtained in B-mode in male wild-type mice that underwent a sham or MI […]
# male mice in MI/Veh group for T2 and T4). Echocardiographic parameters were measured weekly (indicated by ‘T’). All data are presented as mean (value of individual mice) ± SD, two-tailed unpaired […]
# 1 groups. Source data are provided as a Source Data file. AngII, angiotensin II; ANOVA, analysis of variance; Ctrl, control; DOX, doxorubicin; EF, ejection fraction; ERBB4, erythroblastic leukemia viral oncogene homolog 4; FS, fractional shortening; IVSd, interventricular septum thickness in diastole; IVSs, interventricular septum thickness in systole; LVIDd, left ventricular internal diameter in diastole; LVIDs, left ventricular internal diameter in systole; LVPWd, left ventricular posterior wall thickness in diastole; LVPWs, left ventricular posterior wall thickness in systole; MI, myocardial infarction; NA, non-activating pharmacophore-containing compound; SD, standard variation; Veh, vehicle.
# [1] = Myocardial infarction, female wild-type mice, MI/EF-1, T0
# [2] = Myocardial infarction, female wild-type mice, MI/EF-1, T2
# [3] = Myocardial infarction, female wild-type mice, MI/EF-1, T3
# [4] = Myocardial infarction, female wild-type mice, MI/EF-1, T4
# [5] = Myocardial infarction, male wild-type mice, MI/EF-1, T0
# [6] = Myocardial infarction, male wild-type mice, MI/EF-1, T2
# [7] = Myocardial infarction, male wild-type mice, MI/EF-1, T3
# [8] = Myocardial infarction, male wild-type mice, MI/EF-1, T4
# [9] = female wild-type mice, MI/EF-1, T0, mean ± SD
# [10] = female wild-type mice, MI/EF-1, T2, mean ± SD
# [11] = female wild-type mice, MI/EF-1, T3, mean ± SD
# [12] = female wild-type mice, MI/EF-1, T4, mean ± SD
# [13] = male mice, MI/EF-1, 0 weeks after MI
# [14] = male wild-type mice, MI/EF-1, T0, mean ± SD
# [15] = male wild-type mice, MI/EF-1, T2, mean ± SD
# [16] = male wild-type mice, MI/EF-1, T3, mean ± SD
# [17] = male wild-type mice, MI/EF-1, T4, mean ± SD
smiles,measurement,setting,value
O=C(NC1CC1)C(Sc1nc2ccccc2c(=O)n1C1CCCC1)c1ccccc1 (centres unmarked) [EF-1],LVEDA,mouse model of MI; [1],21.8 ± 1.4 mm²
same,LVEDV,mouse model of MI; [1],56.7 ± 5.5 µL
same,LVESA,mouse model of MI; [1],15.5 ± 2.1 mm²
same,LVESV,mouse model of MI; [1],32.7 ± 6.7 µL
same,LVEDA,mouse model of MI; [2],25.7 ± 1.6 mm²
same,LVEDV,mouse model of MI; [2],73.6 ± 9.1 µL
same,LVESA,mouse model of MI; [2],20.8 ± 2.9 mm²
same,LVESV,mouse model of MI; [2],53.9 ± 14.5 µL
same,LVEDA,mouse model of MI; [3],26.5 ± 4.5 mm²
same,LVEDV,mouse model of MI; [3],80.3 ± 22.9 µL
same,LVESA,mouse model of MI; [3],21.2 ± 5.8 mm²
same,LVESV,mouse model of MI; [3],56.6 ± 25.0 µL
same,LVEDA,mouse model of MI; [4],26.5 ± 4.5 mm²
same,LVEDV,mouse model of MI; [4],80.3 ± 22.9 µL
same,LVESA,mouse model of MI; [4],21.2 ± 5.8 mm²
same,LVESV,mouse model of MI; [4],56.6 ± 25.0 µL
same,LVEDA,mouse model of MI; [5],24.7 ± 3.9 mm²
same,LVEDV,mouse model of MI; [5],67.1 ± 15.6 µL
same,LVESA,mouse model of MI; [5],17.6 ± 2.8 mm²
same,LVESV,mouse model of MI; [5],37.3 ± 8.9 µL
same,LVEDA,mouse model of MI; [6],34.8 ± 5.5 mm²
same,LVEDV,mouse model of MI; [6],118.7 ± 30.8 µL
same,LVESA,mouse model of MI; [6],29.7 ± 6.7 mm²
same,LVESV,mouse model of MI; [6],93.3 ± 36.1 µL
same,LVEDA,mouse model of MI; [7],36.6 ± 5.9 mm²
same,LVEDV,mouse model of MI; [7],124.6 ± 35.3 µL
same,LVESA,mouse model of MI; [7],31.3 ± 8.0 mm²
same,LVESV,mouse model of MI; [7],100.4 ± 42.0 µL
same,LVEDA,mouse model of MI; [8],35.9 ± 6.9 mm²
same,LVEDV,mouse model of MI; [8],119.8 ± 37.5 µL
same,LVESA,mouse model of MI; [8],30.5 ± 7.7 mm²
same,LVESV,mouse model of MI; [8],92.5 ± 40.6 µL
same,effect on MI-induced increase in LVEDV and LVESV (in words),"mouse model of MI; female mice, four-week treatment, EF-1 2 mg/kg/day",significantly attenuated the increase in LVEDV and LVESV
same,effect on left ventricular ejection fraction (in words),"mouse model of MI; female mice, four-week treatment, p = 0.0858",trend towards an increased EF
same,EF (ejection fraction),mouse model of MI; [9],42.7 ± 8.1%
same,LVEDA,mouse model of MI; [9],21.8 ± 1.4 mm²
same,LVEDV,mouse model of MI; [9],56.7 ± 5.5 µL
same,LVESA,mouse model of MI; [9],15.5 ± 2.1 mm²
same,LVESV,mouse model of MI; [9],32.7 ± 6.7 µL
same,EF (ejection fraction),mouse model of MI; [10],27.4 ± 14.1%
same,LVEDA,mouse model of MI; [10],25.7 ± 1.6 mm²
same,LVEDV,mouse model of MI; [10],73.6 ± 9.1 µL
same,LVESA,mouse model of MI; [10],20.8 ± 2.9 mm²
same,LVESV,mouse model of MI; [10],53.9 ± 14.5 µL
same,EF (ejection fraction),mouse model of MI; [11],32.2 ± 12.4%
same,LVEDA,mouse model of MI; [11],26.5 ± 4.5 mm²
same,LVEDV,mouse model of MI; [11],80.3 ± 22.9 µL
same,LVESA,mouse model of MI; [11],21.2 ± 5.8 mm²
same,LVESV,mouse model of MI; [11],56.6 ± 25.0 µL
same,EF (ejection fraction),mouse model of MI; [12],32.2 ± 12.4%
same,LVEDA,mouse model of MI; [12],26.5 ± 4.5 mm²
same,LVEDV,mouse model of MI; [12],80.3 ± 22.9 µL
same,LVESA,mouse model of MI; [12],21.2 ± 5.8 mm²
same,LVESV,mouse model of MI; [12],56.6 ± 25.0 µL
same,"effect on LVEDV, LVESV, or EF (in words)",mouse model of MI; male mice,"did not have affect LVEDV, LVESV, or EF"
same,ejection fraction,mouse model of MI; [13],45.4182 and 46.7993 and 31.6272 and 37.5306 and 56.6563
same,left-ventricular end-diastolic volume,mouse model of MI; [13],76.7178 and 76.3835 and 40.6948 and 76.4847 and 65.2387
same,left-ventricular end-systolic volume,mouse model of MI; [13],41.874 and 40.6361 and 27.8242 and 47.7795 and 28.2468
same,left-ventricular end-diastolic volume,"mouse model of MI; male mice, MI/EF-1, 3 weeks after MI",90.4868 and 146.112 and 167.204 and 86.1633 and 133.043
same,EF (ejection fraction),mouse model of MI; [14],43.6 ± 9.5%
same,LVEDA,mouse model of MI; [14],24.7 ± 3.9 mm²
same,LVEDV,mouse model of MI; [14],67.1 ± 15.6 µL
same,LVESA,mouse model of MI; [14],17.6 ± 2.8 mm²
same,LVESV,mouse model of MI; [14],37.3 ± 8.9 µL
same,EF (ejection fraction),mouse model of MI; [15],23.2 ± 12.8%
same,LVEDA,mouse model of MI; [15],34.8 ± 5.5 mm²
same,LVEDV,mouse model of MI; [15],118.7 ± 30.8 µL
same,LVESA,mouse model of MI; [15],29.7 ± 6.7 mm²
same,LVESV,mouse model of MI; [15],93.3 ± 36.1 µL
same,EF (ejection fraction),mouse model of MI; [16],22.0 ± 15.7%
same,LVEDA,mouse model of MI; [16],36.6 ± 5.9 mm²
same,LVEDV,mouse model of MI; [16],124.6 ± 35.3 µL
same,LVESA,mouse model of MI; [16],31.3 ± 8.0 mm²
same,LVESV,mouse model of MI; [16],100.4 ± 42.0 µL
same,EF (ejection fraction),mouse model of MI; [17],25.2 ± 11.5%
same,LVEDA,mouse model of MI; [17],35.9 ± 6.9 mm²
same,LVEDV,mouse model of MI; [17],119.8 ± 37.5 µL
same,LVESA,mouse model of MI; [17],30.5 ± 7.7 mm²
same,LVESV,mouse model of MI; [17],92.5 ± 40.6 µL
same,half-life with mouse microsomes,,15 min
